Source: patent US12319655B2, “RAF kinase inhibitors and methods of use thereof” (Deciphera Pharmaceuticals, LLC, priority 2021, dated 2025)

How the values were obtained:
A375 cells = test: A375 Cell Proliferation Assay (1); format: cell-based; details: Homo sapiens, A-375
Method in brief: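 Resazurin fluorescence (excitation 540 nm, emission 600 nm, after a further 5-6 h) gave IC50s from triplicate compound dilution series.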

[1] = target: C-Raf kinase (SEQ. ID NO: 3) (Homo sapiens (Human), UniProt P04049, Y340D/Y341D); test: Biochemical Assay for C-Raf (1); details: Table J, assay version (1); read-out: CRAF (1) IC50
Method in brief: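 Coupled pyruvate kinase/LDH assay tracking NADH oxidation at 340 nm, with 0.43 nM C-Raf, 30.1 nM MEK and 1 mM ATP in pH 7.5 Tris buffer (15 mM MgCl2, 1% DMSO final). Read continuously for 6 h at 30 °C, rate taken from the 4–5 h window. IC50 from four-parameter fit of percent inhibition.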

H2405 cells = test: H2405 Cell Proliferation Assay (1); format: cell-based; details: Homo sapiens, NCI-H2405
Method in brief: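 Viability was read by resazurin reduction (ex 540 nm, em 600 nm; 5-6 h with 40 μL of 440 μM stock) after 67-72 h compound exposure at 37 °C.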

[2] = target: B-Raf (V600E) (SEQ. ID NO: 4) kinase (Homo sapiens (Human), UniProt P15056, V600E); test: Biochemical Assay for B-Raf (V600E) (1); details: Table J, BRAF V600E, assay version (1); read-out: BRAF VE (1) IC50
Method in brief: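 Coupled pyruvate kinase/lactate dehydrogenase assay: 0.03 nM B-Raf V600E, 30.1 nM MEK, 1 mM ATP, pH 7.5 Tris/MgCl2 buffer, 1% DMSO. NADH oxidation followed at 340 nm for 6 h at 30 °C; rate from 3–4 h converted to percent inhibition, IC50 by four-parameter fit.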

Sequence of B-Raf (V600E) (SEQ. ID NO: 4) kinase (P15056 416-766 V600E): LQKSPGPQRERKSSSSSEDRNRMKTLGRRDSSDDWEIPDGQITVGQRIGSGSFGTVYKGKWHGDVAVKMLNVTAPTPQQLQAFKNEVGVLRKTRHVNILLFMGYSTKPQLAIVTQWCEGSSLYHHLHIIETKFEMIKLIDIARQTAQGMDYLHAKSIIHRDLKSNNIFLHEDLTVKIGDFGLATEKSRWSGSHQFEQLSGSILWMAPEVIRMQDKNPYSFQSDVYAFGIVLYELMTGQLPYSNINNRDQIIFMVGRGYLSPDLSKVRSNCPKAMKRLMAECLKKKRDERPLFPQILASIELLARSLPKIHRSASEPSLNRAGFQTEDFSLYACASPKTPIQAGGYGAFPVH
Sequence of C-Raf kinase (SEQ. ID NO: 3) (P04049 307-648 Y340D/Y341D): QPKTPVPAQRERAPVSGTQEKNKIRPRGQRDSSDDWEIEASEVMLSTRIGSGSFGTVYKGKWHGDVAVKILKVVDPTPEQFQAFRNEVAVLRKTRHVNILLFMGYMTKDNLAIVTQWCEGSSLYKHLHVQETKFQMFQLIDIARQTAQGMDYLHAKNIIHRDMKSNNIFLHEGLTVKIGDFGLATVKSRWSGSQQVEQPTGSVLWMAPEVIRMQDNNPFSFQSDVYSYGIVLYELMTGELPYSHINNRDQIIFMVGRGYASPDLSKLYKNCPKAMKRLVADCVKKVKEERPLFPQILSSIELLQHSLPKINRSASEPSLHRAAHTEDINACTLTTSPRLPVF

SMILES	IC50 (A375 cells)	IC50 [1]	IC50 (H2405 cells)	IC50 [2]
Cc1ccc(NC(=O)c2ccnc(C(C)(C)F)c2)cc1-c1cc(-c2ccnc(NC(=O)C3CC3)c2)cnn1 [Example 315]	≤ 100 nM	≤ 100 nM	≤ 100 nM	≤ 100 nM
CNC(=O)c1cc(-c2cnnc(-c3cc(NC(=O)c4ccnc(C(F)(F)F)c4)cnc3C)c2)ccn1 [Example 318]	1000 to 10000 nM	100 to 500 nM	1000 to 10000 nM	1000 to 10000 nM
Cc1ccc(NC(=O)c2cn(C(C)C)nn2)cc1-c1cc(-c2ccnc(NC(=O)C3CC3)c2)cnn1 [Example 320]	1000 to 10000 nM	≤ 100 nM	1000 to 10000 nM	100 to 500 nM
Cc1ccc(NC(=O)c2cnn(C(C)(C)C)c2)cc1-c1cc(-c2ccnc(NC(=O)C3CC3)c2)cnn1 [Example 321]	100 to 500 nM	≤ 100 nM	100 to 500 nM	≤ 100 nM
CNC(=O)c1cc(-c2cnnc(-c3cc(NC(=O)c4ccnc(C(C)(C)F)c4)ccc3C)c2)ccn1 [Example 325]	100 to 500 nM	100 to 500 nM	100 to 500 nM	≤ 100 nM
CNC(=O)c1cc(-c2cnnc(-c3cc(NC(=O)c4ccnc(C(F)F)c4)ccc3C)c2)ccn1 [Example 327]	1000 to 10000 nM	≤ 100 nM	1000 to 10000 nM	500 to 1000 nM
Cc1ccc(NC(=O)c2ccnc(S(C)(=O)=O)c2)cc1-c1cc(-c2ccnc(NC(=O)C3CC3)c2)cnn1 [Example 332]	1000 to 10000 nM	≤ 100 nM	1000 to 10000 nM	≤ 100 nM
CO[C@H]1CC[C@H](C(=O)Nc2cnc(C)c(-c3cccc(-c4cc(NC(=O)C5CC5)ncn4)c3)c2)CC1 [Example 347]	1000 to 10000 nM	100 to 500 nM	1000 to 10000 nM	≤ 100 nM
CNC(=O)c1cc(-c2cc(-c3cc(NC(=O)CCC(C)(C)C#N)ccc3C)ccn2)ccn1 [Example 357]	1000 to 10000 nM	≤ 100 nM	1000 to 10000 nM	500 to 1000 nM
CNC(=O)c1cc(-c2cc(-c3cc(NC(=O)COCC4CC4)ccc3C)ccn2)ccn1 [Example 358]	1000 to 10000 nM	≤ 100 nM	1000 to 10000 nM	500 to 1000 nM
COC(=O)Nc1cc(-c2cnnc(-c3cc(NC(=O)c4ccnc(C(C)(C)F)c4)cnc3C)c2)ccn1 [Example 361]	1000 to 10000 nM	≤ 100 nM	500 to 1000 nM	100 to 500 nM
COC(=O)Nc1cc(-c2cnnc(-c3cc(NC(=O)c4ccnc(C(F)F)c4)cnc3C)c2)ccn1 [Example 363]	1000 to 10000 nM	100 to 500 nM	1000 to 10000 nM	1000 to 10000 nM
CNC(=O)c1cc(-c2cnnc(-c3cc(NC(=O)c4ccnc(C(F)(F)F)c4)ccc3C)c2)ccn1 [Example 364]	1000 to 10000 nM	100 to 500 nM	500 to 1000 nM	100 to 500 nM
COCCNC(=O)c1cc(-c2cnnc(-c3cc(NC(=O)c4cccc(C5CC5)c4)ccc3C)c2)ccn1 [Example 365]	1000 to 10000 nM	100 to 500 nM	1000 to 10000 nM	500 to 1000 nM
COC(=O)Nc1cc(-c2cnnc(-c3cc(NC(=O)CC4CCCC4)cnc3C)c2)ccn1 [Example 368]	1000 to 10000 nM	1000 to 10000 nM	1000 to 10000 nM	1000 to 10000 nM
Cc1ccc(NC(=O)c2ccnc(C(C)(C)C#N)c2)cc1-c1cc(-c2ccnc3[nH]ccc23)cnn1 [Example 369]	1000 to 10000 nM	≤ 100 nM	500 to 1000 nM	≤ 100 nM
Cc1ccc(NC(=O)C2CCOC(C(C)C)C2)cc1-c1cc(-c2ccnc(NC(=O)C3CC3)c2)cnn1 (stereo not drawn) [Example 370]	1000 to 10000 nM	≤ 100 nM	500 to 1000 nM	≤ 100 nM
CNC(=O)c1cc(-c2cc(-c3cc(NC(=O)c4ccnc(C(C)(C)F)c4)ccc3C)cnc2C)ccn1 [Example 371]	100 to 500 nM	100 to 500 nM	100 to 500 nM	≤ 100 nM
Cc1ccc(NC(=O)c2ccnc(C(C)(C)C#N)c2)cc1-c1cc(-c2ccnc(C(=O)NC3CC3)c2)cnn1 [Example 372]	1000 to 10000 nM	500 to 1000 nM	1000 to 10000 nM	100 to 500 nM

Continued, values first:

IC50 (A375 cells)	IC50 [1]	IC50 (H2405 cells)	IC50 [2]	SMILES
1000 to 10000 nM	≤ 100 nM	100 to 500 nM	1000 to 10000 nM	COC(=O)Nc1cc(-c2cc(-c3cc(NC(=O)c4ccnc(C(F)F)c4)cnc3C)ccn2)ccn1 [Example 313]
100 to 500 nM	100 to 500 nM	500 to 1000 nM	≤ 100 nM	CNC(=O)c1cc(-c2cnnc(-c3cc(NC(=O)c4ccnc(C(C)(C)C#N)c4)ccc3C)c2)ccn1 [Example 314]
1000 to 10000 nM	100 to 500 nM	1000 to 10000 nM	100 to 500 nM	CNC(=O)c1cc(-c2cnnc(-c3cc(NC(=O)c4ccnc(C(C)(C)C#N)c4)cnc3C)c2)ccn1 [Example 316]
1000 to 10000 nM	100 to 500 nM	1000 to 10000 nM	1000 to 10000 nM	CNC(=O)c1cc(-c2cnnc(-c3cc(NC(=O)c4ccnc(C5CC5)c4)cnc3C)c2)ccn1 [Example 317]
≤ 100 nM	≤ 100 nM	≤ 100 nM	≤ 100 nM	COC(C)(C)c1cc(C(=O)Nc2ccc(C)c(-c3cc(-c4ccnc(NC(=O)C5CC5)c4)cnn3)c2)ccn1 [Example 319]
1000 to 10000 nM	1000 to 10000 nM	1000 to 10000 nM	1000 to 10000 nM	CNC(=O)c1cc(-c2cnnc(-c3cc(NC(=O)c4ccc(Cl)c(OC)c4)cnc3C)c2)ccn1 [Example 322]
100 to 500 nM	≤ 100 nM	100 to 500 nM	≤ 100 nM	COC(=O)Nc1cc(-c2cc(-c3cc(NC(=O)c4ccnc(C(C)(C)F)c4)cnc3C)ccn2)ccn1 [Example 323]
1000 to 10000 nM	≤ 100 nM	1000 to 10000 nM	100 to 500 nM	CNC(=O)c1cc(-c2cnnc(-c3cc(NC(=O)c4ccnc(C5CC5)c4)ccc3C)c2)ccn1 [Example 326]
100 to 500 nM	100 to 500 nM	100 to 500 nM	≤ 100 nM	CNC(=O)c1cc(-c2cnnc(-c3cc(NC(=O)c4ccnc(C(C)(C)OC)c4)ccc3C)c2)ccn1 [Example 328]
500 to 1000 nM	≤ 100 nM	500 to 1000 nM	≤ 100 nM	CNC(=O)c1cc(-c2cnnc(-c3cc(NC(=O)c4ccc(F)c(C(F)(F)F)c4)ccc3C)c2)ccn1 [Example 329]
1000 to 10000 nM	100 to 500 nM	1000 to 10000 nM	1000 to 10000 nM	CNC(=O)c1cc(-c2cnnc(-c3cc(NC(=O)c4ccnc(C(F)F)c4)cnc3C)c2)ccn1 [Example 330]
100 to 500 nM	≤ 100 nM	100 to 500 nM	≤ 100 nM	Cc1ccc(NC(=O)c2ccnc(C3CC3)c2)cc1-c1cc(-c2ccnc(NC(=O)C3CC3)c2)cnn1 [Example 331]
1000 to 10000 nM	1000 to 10000 nM	1000 to 10000 nM	1000 to 10000 nM	CNC(=O)c1cc(-c2cnnc(-c3cc(NC(=O)CCC(C)(C)C#N)cnc3C)c2)ccn1 [Example 333]
1000 to 10000 nM	≤ 100 nM	1000 to 10000 nM	≤ 100 nM	Cc1ccc(NC(=O)C2CN(C)CCO2)cc1-c1cccc(-c2cc(NC(=O)C3CC3)ncn2)c1 (stereo not drawn) [Example 346]
1000 to 10000 nM	≤ 100 nM	1000 to 10000 nM	≤ 100 nM	Cc1ncc(NC(=O)C2CCOC(C)(C)C2)cc1-c1cccc(-c2cc(NC(=O)C3CC3)ncn2)c1 (stereo not drawn) [Example 348]
1000 to 10000 nM	1000 to 10000 nM	1000 to 10000 nM	1000 to 10000 nM	COC(=O)Nc1cc(-c2cnnc(-c3cc(NC(=O)CN4CCCC4)cnc3C)c2)ccn1 [Example 359]
1000 to 10000 nM	100 to 500 nM	1000 to 10000 nM	1000 to 10000 nM	COC(=O)Nc1cc(-c2cnnc(-c3cc(NC(=O)COCC4CC4)ccc3C)c2)ccn1 [Example 360]
1000 to 10000 nM	≤ 100 nM	1000 to 10000 nM	1000 to 10000 nM	COC(=O)Nc1cc(-c2cnnc(-c3cc(NC(=O)c4ccnc(C5CC5)c4)cnc3C)c2)ccn1 [Example 362]
1000 to 10000 nM	100 to 500 nM	1000 to 10000 nM	100 to 500 nM	CNC(=O)c1cc(-c2cnnc(-c3cc(NC(=O)c4cn(C(C)(C)C)nn4)ccc3C)c2)ccn1 [Example 366]
100 to 500 nM	≤ 100 nM	100 to 500 nM	≤ 100 nM	Cc1ccc(NC(=O)c2cc(C(C)(C)C)no2)cc1-c1cc(-c2ccnc(NC(=O)C3CC3)c2)cnn1 [Example 367]
